# Literature values in patent US10888535B2, “Skin disinfectant composition” (priority 2015, dated 2021).
row,solubility in water,Structure (SMILES)
1,extremely insoluble in water,"CCCCCCCCNC(=N)NC(=N)NCc1ccc(Cl)c(Cl)c1 [Olanexidine, 1-(3,4-dichlorobenzyl)-5-octylbiguanide]"
2,sufficient solubility in water,CCCCCCCCN=C(N)NC(N)=NCc1ccc(Cl)c(Cl)c1.O=C(O)[C@H](O)[C@@H](O)[C@H](O)[C@H](O)CO [gluconate of olanexidine]
